{"source": "patent US20250250292A1", "about": "“DELIVERY SYSTEM TO TARGET GRAM-NEGATIVE BACTERIA” (priority 2022, published 2025)", "assay_type_in_all_cases": "cell-based", "key": {"[1]": {"test_system": "Escherichia coli (BL21(DE3))", "assay": "Resazurin blue (alamarBlue) bacterial cell viability assay, gram-negative model", "description": "(§1) To compare the efficacy of pleuromutilin and the pleuromulin-TPP^+ ester pro-drug (AP-8-159B) gram-negative and gram-positive pathogen model system were used. Thus, Escherichia coli (BL21(DE3) from New England Biolabs) was used as a model strain for gram-negative bacteria and clinical isolates of Staphylococcus aureus were used as the model system for gram-positive bacteria (NR-49120, NR-46413 obtained from BEI Resources). All strains were cultured at 37° C. overnight in Luria Bertani (LB) (BD 244610). For testing the drug sensitivity, bacteria were grown in RPMI medium containing 10% fetal bovine serum or human serum.\nA resazurin blue assay (alamarBlue®) (Toté et al., 2009; Costa et al., 2021; Wannigama et al., 2019; Travnickova et al., 2019) was used to evaluate bacterial cell viability. Resazurin (7-hydroxy-10-oxidophenoxazin-10-ium-3-one, sodium) is a blue fluorogenic dye used as a redox indicator in cell viability and proliferation assays for bacteria, yeast, or mammalian cells. The resazurin assay protocol is based on the reduction of oxidized non-fluorescent blue resazurin to a red fluorescent dye (resorufin), where NADPH dehydrogenase, without being bound by theory, is probably responsible for the transference of electrons from NADPH+H^+ to resazurin (Costa et al., 2021). The amount of resorufin produced is directly proportional to the number of living cells. This simple fluorometric-based assay rapidly quantifies metabolically active bacterial cells. Two controls were added to the plate to confirm the correct response from the resazurin. The positive control used evaluated media alone without bacterial culture to confirm there was no change from blue to red. The negative control evaluated the bacteria culture alone without added compound to provide a 100% growth control (red). Thus, resazurin sodium salt (Sigma R7017) was added to pleuromutilin or pleuromutilin-TPP+ prodrug treated bacterial samples at a final concentration of 0.02% and incubated for 8 hours at 37° C. Changes in fluorescence were measured on the Biotek Synergy 2 plate reader after an 8-hour incubation at 37° C. using an excitation filter range of 530-570 nm and an emission filter range of 590-620 nm. An increase in fluorescence intensity corresponded to bacterial growth and was quantified by comparison with untreated bacterial control samples. The ratio of (TThreshold (untreated)/TThreshold (prodrug-treated)) (where T=time) was used to quantify the change in bacterial growth. To minimize inter-experimental variations, TThreshold values were corrected by subtracting untreated control cultures to reach minimum detectable fluorescence. At the end of the experiment, wells were visualized for changes in color from blue (inviable bacteria) to red (viable bacteria) and a picture was taken."}, "[2]": {"test_system": "clinical isolates of Staphylococcus aureus (NR-49120, NR-46413)", "assay": "Resazurin blue (alamarBlue) bacterial cell viability assay, gram-positive model", "conditions": "clinical strains of Staphylococcus aureus", "description": "as §1\nA resazurin blue assay (alamarBlue®) (Toté et al., 2009; Costa et al., 2021; Wannigama et al., 2019; Travnickova et al., 2019) was used to evaluate bacterial cell viability. Resazurin (7-hydroxy-10-oxidophenoxazin-10-ium-3-one, sodium) is a blue fluorogenic dye used as a redox indicator in cell viability and proliferation assays for bacteria, yeast, or mammalian cells. […] This simple fluorometric-based assay rapidly quantifies metabolically active bacterial cells. […] The positive control used evaluated media alone without bacterial culture to confirm there was no change from blue to red. The negative control evaluated the bacteria culture alone without added compound to provide a 100% growth control (red). […] Changes in fluorescence were measured on the Biotek Synergy 2 plate reader after an 8-hour incubation at 37° C. using an excitation filter range of 530-570 nm and an emission filter range of 590-620 nm. An increase in fluorescence intensity corresponded to bacterial growth and was quantified by comparison with untreated bacterial control samples. The ratio of (TThreshold (untreated)/TThreshold (prodrug-treated)) (where T=time) was used to quantify the change in bacterial growth. To minimize inter-experimental variations, TThreshold values were corrected by subtracting untreated control cultures to reach minimum detectable fluorescence. […]"}, "[3]": {"test_system": "MRC5 fibroblast cells", "assay": "Cel Titer Glo cytotoxicity in MRC5 cells", "conditions": "for IC50: Homo sapiens", "description": "In order to facilitate development of the TPP containing antibiotics, a series of TPP linkers were prepared and tested for their toxicity in MRC5 cells. This library of linkers are shown below: The toxicity of these linkers in MRC5 cells after a 72 hour incubation."}, "[4]": {"test_system": "Escherichia coli", "assay": "Antibacterial in vitro activity (MIC)", "description": "(§2) These compounds were tested in an E. coli and Klebsiella strain to determine the change in OD600 as a function of concentration (FIG. 5, E. coli; FIG. 6, Klebsiella). The antibacterial activity of the compounds was further analyzed and activity was determine a variety of different bacterial strains."}, "[5]": {"test_system": "Acinetobacter baumannii", "assay": "Antibacterial in vitro activity (MIC)", "description": "as §2"}, "[6]": {"test_system": "Citrobacter freundii", "assay": "Antibacterial in vitro activity (MIC)", "description": "as §2"}, "[7]": {"test_system": "Enterobacter cloacae", "assay": "Antibacterial in vitro activity (MIC)", "description": "as §2"}, "[8]": {"test_system": "Enterococcus faecium", "assay": "Antibacterial in vitro activity (MIC)", "conditions": "isolate D0459, Clinical isolate", "description": "as §2"}, "[9]": {"test_system": "Haemophilus influenzae", "assay": "Antibacterial in vitro activity (MIC)", "description": "as §2"}, "[10]": {"test_system": "Klebsiella pneumoniae", "assay": "Antibacterial in vitro activity (MIC)", "description": "as §2"}, "[11]": {"test_system": "Proteus mirabilis", "assay": "Antibacterial in vitro activity (MIC)", "description": "as §2"}, "[12]": {"test_system": "Pseudomonas aeruginosa", "assay": "Antibacterial in vitro activity (MIC)", "description": "as §2"}, "[13]": {"test_system": "Salmonella typhimurium", "assay": "Antibacterial in vitro activity (MIC)", "conditions": "Salmonella enterica, ATCC 13311 / TYPHIMURIUM; isolate D0109, ATCC13311", "description": "as §2"}, "[14]": {"test_system": "Staphylococcus aureus", "assay": "Antibacterial in vitro activity (MIC)", "description": "as §2"}, "[15]": {"test_system": "Streptococcus agalactiae", "assay": "Antibacterial in vitro activity (MIC)", "conditions": "isolate B0790, Clinical isolate", "description": "as §2"}, "[16]": {"test_system": "Streptococcus pneumoniae", "assay": "Antibacterial in vitro activity (MIC)", "description": "as §2"}, "[17]": {"test_system": "Streptococcus pyogenes", "assay": "Antibacterial in vitro activity (MIC)", "conditions": "isolate B0780, Clinical isolate", "description": "as §2"}, "[18]": {"conditions": "Table 1, TPP+ linkers, MRC5 cells, 72-hour incubation"}, "[19]": {"conditions": "Table 2, cytotoxicity in MRC5 fibroblast cells"}, "[20]": {"conditions": "ATCC25922, isolate B0001, ATCC 25922, read-out: MIC"}, "[21]": {"conditions": "isolate B0159, Efflux pump deficient (ΔtolC)"}, "[22]": {"conditions": "isolate B0429, Efflux pump deficient (ΔacrAB)"}, "[23]": {"conditions": "isolate B1098, Clinical isolate, read-out: MIC"}, "[24]": {"conditions": "isolate D0120, Clinical isolate, read-out: MIC"}}, "note": "Like-named read-outs stand apart in the source and are kept apart here.", "data": [{"smiles": "O=C(O)c1ccc(C[P+](c2ccccc2)(c2ccccc2)c2ccccc2)cc1", "note": "[AP-8-108, (4-Carboxybenzyl)triphenylphosphonium bromide]", "values": [{"measurement": "cytotoxic effect", "setting": "[1]; E. coli BL21 (DE3)", "value": "no cytotoxic effect"}, {"measurement": "cytotoxic effect", "setting": "[2]", "value": "no cytotoxic effect"}, {"measurement": "IC50", "setting": "[3]; [18]", "value": "> 90", "unit": "µM"}, {"measurement": "IC50", "setting": "[3]; [19]", "value": "> 90", "unit": "µM"}, {"measurement": "MIC", "setting": "[4]; [20]", "value": "> 32", "unit": "µg/mL"}, {"measurement": "MIC", "setting": "[4]; [21]", "value": "> 32", "unit": "µg/mL"}, {"measurement": "MIC", "setting": "[4]; [22]", "value": "> 32", "unit": "µg/mL"}, {"measurement": "MIC", "setting": "[4]; [23]", "value": "> 32", "unit": "µg/mL"}, {"measurement": "MIC", "setting": "[4]; [24]", "value": "> 32", "unit": "µg/mL"}]}, {"smiles": "Oc1ccc(C[P+](c2ccccc2)(c2ccccc2)c2ccccc2)cc1", "note": "[AP-8-109]", "values": [{"measurement": "IC50", "setting": "[3]; [18]", "value": 60.6, "unit": "µM"}]}, {"smiles": "C=C[C@]1(C)C[C@@H](OC(=O)COC(=O)c2ccc(C[P+](c3ccccc3)(c3ccccc3)c3ccccc3)cc2)[C@]2(C)CC[C@@H](C)[C@@]3(CCC(=O)[C@@H]23)[C@@H](C)[C@@H]1O", "note": "[AP-8-159B]", "values": [{"measurement": "cytotoxicity potency", "setting": "[1]; E Coli BL21 (DE3)", "value": 1.65, "unit": "µg/mL"}, {"measurement": "cytotoxic effect", "setting": "[2]", "value": "potent cytotoxic agents"}, {"measurement": "IC50", "setting": "[3]; [19]", "value": 4.67, "unit": "µM"}, {"measurement": "cytotoxicity", "setting": "[3]; normal MRC5 fibroblast cell lines", "value": "weak cytoxcity"}, {"measurement": "MIC", "setting": "[5]; ATCC15473, isolate B0473, ATCC 15473", "value": 64, "unit": "µg/mL"}, {"measurement": "MIC", "setting": "[5]; isolate B1062, Clinical isolate", "value": 128, "unit": "µg/mL"}, {"measurement": "MIC", "setting": "[6]; isolate B0271, Clinical isolate", "value": 64, "unit": "µg/mL"}, {"measurement": "MIC", "setting": "[6]; isolate B0286, AKH Vienna", "value": 64, "unit": "µg/mL"}, {"measurement": "MIC", "setting": "[7]; isolate D1089, Clinical isolate", "value": "> 128", "unit": "µg/mL"}, {"measurement": "MIC", "setting": "[7]; isolate D1090, Clinical isolate", "value": "> 128", "unit": "µg/mL"}, {"measurement": "MIC", "setting": "[8]", "value": 0.5, "unit": "µg/mL"}, {"measurement": "MIC", "setting": "[4]; [20]", "value": 8, "unit": "µg/mL"}, {"measurement": "MIC", "setting": "[4]; isolate B0158, AcrAB-TolC efflux pump WT, read-out: MIC", "value": 32, "unit": "µg/mL"}, {"measurement": "MIC", "setting": "[4]; [21]", "value": 0.5, "unit": "µg/mL"}, {"measurement": "MIC", "setting": "[4]; [22]", "value": 1, "unit": "µg/mL"}, {"measurement": "MIC", "setting": "[4]; [23]", "value": 16, "unit": "µg/mL"}, {"measurement": "MIC", "setting": "[4]; [24]", "value": 16, "unit": "µg/mL"}, {"measurement": "MIC", "setting": "[9]; ATCC49247, isolate B0035, ATCC 49247", "value": 1, "unit": "µg/mL"}, {"measurement": "MIC", "setting": "[9]; isolate B0126, Clinical isolate", "value": 0.25, "unit": "µg/mL"}, {"measurement": "MIC", "setting": "[10]; ATCC11228, isolate B0032, ATCC 11228", "value": "> 128", "unit": "µg/mL"}, {"measurement": "MIC", "setting": "[10]; ATCC29519, isolate D0033, ATCC 29519", "value": 128, "unit": "µg/mL"}, {"measurement": "MIC", "setting": "[10]; ATCC43816, isolate B0305, ATCC 43816", "value": 128, "unit": "µg/mL"}, {"measurement": "MIC", "setting": "[11]; Proteus mirabilis, isolate D1301, Clinical isolate, read-out: MIC", "value": 32, "unit": "µg/mL"}, {"measurement": "MIC", "setting": "[11]; isolate D1300, Clinical isolate", "value": 32, "unit": "µg/mL"}, {"measurement": "MIC", "setting": "[12]; ATCC27853, isolate B0015, ATCC 27853", "value": 8, "unit": "µg/mL"}, {"measurement": "MIC", "setting": "[12]; ATCC29511, isolate B0016, ATCC 29511", "value": 16, "unit": "µg/mL"}, {"measurement": "MIC", "setting": "[12]; isolate B0367, Clinical isolate", "value": 4, "unit": "µg/mL"}, {"measurement": "MIC", "setting": "[13]", "value": 16, "unit": "µg/mL"}, {"measurement": "MIC", "setting": "[14]; ATCC49951, isolate B0009, ATCC 49951", "value": "≤ 0.12", "unit": "µg/mL"}, {"measurement": "MIC", "setting": "[14]; isolate B0029, Clinical isolate", "value": 0.5, "unit": "µg/mL"}, {"measurement": "MIC", "setting": "[14]; isolate B1325, Clinical isolates", "value": 0.5, "unit": "µg/mL"}, {"measurement": "MIC", "setting": "[15]", "value": 0.06, "unit": "µg/mL"}, {"measurement": "MIC", "setting": "[16]; isolate B0078, Clinical isolate", "value": 0.5, "unit": "µg/mL"}, {"measurement": "MIC", "setting": "[16]; isolate B0415, Clinical isolate", "value": "≤ 0.12", "unit": "µg/mL"}, {"measurement": "MIC", "setting": "[17]", "value": 0.12, "unit": "µg/mL"}]}, {"smiles": "Fc1cc(C[P+](c2ccccc2)(c2ccccc2)c2ccccc2)ccc1Cl", "note": "[BI-182]", "values": [{"measurement": "IC50", "setting": "[3]; [18]", "value": "> 90", "unit": "µM"}]}]}
